Results on 19 molecules are retold here after PubChem BioAssay AID328 (DTP/NCI, 2004).

The subject of this assay is BDF1 mice, P388 leukemia ip, median survival T/C. The experiment in a line: NCI In Vivo Anticancer Drug Screen. Data for tumor model P388 Leukemia (intraperitoneal) in B6D2F1 (BDF1) mice. To be noted: endpoint: median survival time, higher = longer survival. A digest of the protocol: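 Reported as T/C, where T is the survival measurement in dosed animals and C the same measurement in vehicle controls.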

Setting [1] is: dose: 50.0 mg/kg/injection, schedule: Q01DX009 (ip), vehicle: saline with Tween-80.
[2] abbreviates: dose: 100.0 mg/kg/injection, schedule: Q01DX009 (ip), vehicle: saline with Tween-80.
The mark [3] stands for this setting: dose: 200.0 mg/kg/injection, schedule: Q01DX009 (ip), vehicle: saline with Tween-80.
[4] abbreviates: dose: 50.0 mg/kg/injection, schedule: Q01DX009 (ip), vehicle: saline.
Where [5] appears, read: dose: 100.0 mg/kg/injection, schedule: Q01DX009 (ip), vehicle: saline.
Where [6] appears, read: dose: 200.0 mg/kg/injection, schedule: Q01DX009 (ip), vehicle: saline.
Setting [7] is: dose: 100.0 mg/kg/injection, schedule: Q04DX003 (ip), vehicle: saline with Tween-80.
[8] abbreviates: dose: 200.0 mg/kg/injection, schedule: Q04DX003 (ip), vehicle: saline with Tween-80.
The mark [9] stands for this setting: dose: 100.0 mg/kg/injection, schedule: Q04DX003 (ip), vehicle: saline.
Setting [10] is: dose: 200.0 mg/kg/injection, schedule: Q04DX003 (ip), vehicle: saline.
The mark [11] stands for this setting: dose: 400.0 mg/kg/injection, schedule: Q01DX009 (ip), vehicle: saline.
[12] abbreviates: dose: 400.0 mg/kg/injection, schedule: Q04DX003 (ip), vehicle: saline.
The mark [13] stands for this setting: dose: 400.0 mg/kg/injection, schedule: Q04DX003 (ip), vehicle: saline with Tween-80.

Structures are written as SMILES. Where “and” joins values, the source holds several entries; their conditions need not be identical. Equal entries are not always repeated. Inconclusive results and toxic doses are left out.

`CC[C@H]1CN2CCc3cc(OC)c(OC)cc3[C@@H]2C[C@@H]1C[C@H]1NCCc2c1[nH]c1ccc(O)cc21`: the T/C (dose: 2.0 mg/kg/injection, schedule: Q04DX003 (ip), vehicle: saline + alcohol) is 186 % of control and the T/C (dose: 4.0 mg/kg/injection, schedule: Q04DX003 (ip), vehicle: saline + alcohol) was 183 % of control.
On to `O=C1C(Cl)=CC(=NS(=O)(=O)c2ccccc2)C=C1Cl`, for which the T/C (dose: 3.13 mg/kg/injection, schedule: Q04DX003 (ip), vehicle: saline with Tween-80) is 110 % of control; the T/C (dose: 6.25 mg/kg/injection, schedule: Q04DX003 (ip), vehicle: saline with Tween-80) is 110 % of control; the T/C (dose: 12.5 mg/kg/injection, schedule: Q04DX003 (ip), vehicle: saline with Tween-80) is 110 % of control.
For the molecule `CC(C)(C)c1cc(C(C)(C)c2ccccc2)cc(Cc2cc(C(C)(C)c3ccccc3)cc(C(C)(C)C)c2O)c1O`, the T/C was 118 % of control (dose: 50.0 mg/kg/injection, schedule: Q01DX009 (ip), vehicle: saline + Tween-80 + alcohol); 96 % of control under setting [1]; 90 % of control (dose: 100.0 mg/kg/injection, schedule: Q01DX009 (ip), vehicle: saline + Tween-80 + alcohol); 100 % of control under setting [2]; 115 % of control (dose: 200.0 mg/kg/injection, schedule: Q01DX009 (ip), vehicle: saline + Tween-80 + alcohol); 124 % of control under setting [3]. Also, the T/C (dose: 400.0 mg/kg/injection, schedule: Q01DX009 (ip), vehicle: saline + Tween-80 + alcohol) was 107 % of control.
As for `CC(/C=C/C=C/c1ccccc1)=N\O`, the T/C is, setting by setting: (dose: 200.0 mg/kg/injection, schedule: Q01DX009 (ip), vehicle: Klucel (hydroxypropylcellulose) (HPC)) 90 % of control; (dose: 400.0 mg/kg/injection, schedule: Q01DX009 (ip), vehicle: Klucel (hydroxypropylcellulose) (HPC)) 95 % of control.
Take `CCC(C)C(=O)O[C@H]1C(=O)O[C@@H]2C[C@H]3C(C)=CC(=O)[C@@H](O)[C@]3(C)[C@H]3[C@@H](O)[C@H](O)[C@@]4(C)OC[C@]32[C@@H]14` (stereo not given in full): the T/C runs as follows: (dose: 0.06 mg/kg/injection, schedule: Q01DX009 (ip), vehicle: saline + alcohol) 115 % of control; (dose: 0.75 mg/kg/injection, schedule: Q01DX009 (ip), vehicle: saline + alcohol) 159 % of control; (dose: 1.0 mg/kg/injection, schedule: Q01DX009 (ip), vehicle: saline + alcohol) 198 % of control; (dose: 1.5 mg/kg/injection, schedule: Q01DX009 (ip), vehicle: saline + alcohol) 154 % of control; (dose: 2.0 mg/kg/injection, schedule: Q01DX009 (ip), vehicle: saline + alcohol) 155 % of control; (dose: 3.0 mg/kg/injection, schedule: Q01DX009 (ip), vehicle: saline + alcohol) 104 % of control. Moreover, the T/C (dose: 4.0 mg/kg/injection, schedule: Q01DX009 (ip), vehicle: saline + alcohol) was 180 % of control.
For `CC(C)n1c(=O)c2ccccc2[s+]1-c1ccccc1` (stereo not given), the T/C (dose: 100.0 mg/kg/injection, schedule: Q01DX001 (ip), vehicle: saline with Tween-80) is 95 % of control; the T/C (dose: 200.0 mg/kg/injection, schedule: Q01DX001 (ip), vehicle: saline with Tween-80) was 95 % of control; the T/C (dose: 400.0 mg/kg/injection, schedule: Q01DX001 (ip), vehicle: saline with Tween-80) was 92 % of control.
For `COc1ccc(SC/C(=N\NOS(=O)(=O)c2ccc(C)cc2)c2ccccc2)cc1`, the T/C is 96 % of control under setting [4], 98 % of control under setting [5] and 109 % of control under setting [6].
Consider `COc1ccc2[nH]c3c(c2c1)CCNC3CC(C)CCC=C(C)C` (stereo not given), for which the T/C is 93 % of control under setting [1] and 113 % of control under setting [2].
For `CC(c1ccccc1)N1COc2ccc3ccccc3c2C1` (stereo not given), the T/C by setting is: under setting [2], 100 % of control; under setting [3], 104 % of control; (dose: 400.0 mg/kg/injection, schedule: Q01DX009 (ip), vehicle: saline with Tween-80) 113 % of control.
With `C=C(CC(N)=O)C(=O)O` (tested in a mixture with another compound), the T/C (dose: 88.0 mg/kg/injection, schedule: Q01DX003 (ip), vehicle: saline) was 109 % of control and 113 % of control; the T/C (dose: 177.0 mg/kg/injection, schedule: Q01DX003 (ip), vehicle: saline) is 109 % of control and 122 % of control; the T/C (dose: 266.0 mg/kg/injection, schedule: Q01DX003 (ip), vehicle: saline) was 109 % of control and 122 % of control; the T/C (dose: 400.0 mg/kg/injection, schedule: Q01DX003 (ip), vehicle: saline) was 118 % of control and 122 % of control; the T/C (dose: 600.0 mg/kg/injection, schedule: Q01DX003 (ip), vehicle: saline) was 118 % of control.
On to `COc1ccc(NC(=S)N(CCC#N)C2CCCCC2)cc1`, for which the T/C is 86 % of control (dose: 6.25 mg/kg/injection, schedule: Q01DX009 (ip), vehicle: saline with Tween-80); 100 % of control (dose: 12.5 mg/kg/injection, schedule: Q01DX009 (ip), vehicle: saline with Tween-80); 104 % of control (dose: 25.0 mg/kg/injection, schedule: Q01DX009 (ip), vehicle: saline with Tween-80); 95 % of control under setting [1].
For the molecule `c1ccc(CSc2ncnc3nc[nH]c23)nc1`, the T/C was 100 % of control (dose: 50.0 mg/kg/injection, schedule: Q01DX009 (ip), vehicle: saline sonified); 105 % of control (dose: 50.0 mg/kg/injection, schedule: Q04DX003 (ip), vehicle: saline with Tween-80); 111 % of control (dose: 100.0 mg/kg/injection, schedule: Q01DX009 (ip), vehicle: saline sonified); 100 % of control under setting [7]; 100 % of control under setting [8].
For `CC(C)(N)COS(=O)(=O)O`, the T/C is 100 % of control under setting [4]; 90 % of control and 100 % of control under setting [5]; 100 % of control under setting [9]; 95 % of control under setting [6]; 100 % of control under setting [10]; 100 % of control under setting [11]. The T/C under setting [12] was 100 % of control.
Take `CSCCC1NC(=O)C(/C(C)=N\NC(N)=O)=C1O` (stereo not given): the T/C is, setting by setting: under setting [1], 108 % of control; under setting [2], 115 % of control; under setting [3], 92 % of control.
For the molecule `COc1cccc2c1C(=O)c1c(O)c3c(c(O)c1C2=O)CC(O)(/C(C)=N/NC(=O)CCCCCCCCC(=O)N/N=C(\C)C1(O)Cc2c(O)c4c(c(O)c2C(OC2CC(N)C(O)C(C)O2)C1)C(=O)c1c(OC)cccc1C4=O)CC3OC1CC(N)C(O)C(C)O1` (stereo not given), the T/C runs as follows: (dose: 3.13 mg/kg/injection, schedule: Q01DX009 (ip), vehicle: water) 172 % of control; (dose: 6.25 mg/kg/injection, schedule: Q01DX009 (ip), vehicle: water) 210 % of control; (dose: 25.0 mg/kg/injection, schedule: Q01DX009 (ip), vehicle: water) 88 % of control.
Turning to `OCC(CO)(CO)CBr`, the T/C is 110 % of control under setting [5]; 90 % of control under setting [9]; 110 % of control under setting [6]; 90 % of control under setting [10]; 88 % of control under setting [11]; 114 % of control under setting [12].
As for `Cc1ccc(C)c(Cc2c(C=O)[nH]c(=S)[nH]c2=O)c1`, the T/C reads like this: under setting [7], 100 % of control; under setting [8], 109 % of control; under setting [13], 122 % of control.
Consider `CCOCc1cccc2ccccc12`, for which the T/C runs as follows: under setting [7], 109 % of control; under setting [8], 100 % of control; under setting [13], 118 % of control.
Turning to `COc1cc2c(cc1OC)[C@]13C[C@H](OC)CC=C1CCN3CCC2`, the T/C is 86 % of control (dose: 10.0 mg/kg/injection, schedule: Q01DX009 (ip), vehicle: alcohol); 100 % of control (dose: 20.0 mg/kg/injection, schedule: Q01DX009 (ip), vehicle: alcohol); 100 % of control (dose: 40.0 mg/kg/injection, schedule: Q01DX009 (ip), vehicle: alcohol); 95 % of control (dose: 80.0 mg/kg/injection, schedule: Q01DX009 (ip), vehicle: alcohol).
